According to US20250223560A1, “NOX4 INHIBITOR COMPOSITIONS AND METHODS FOR REGENERATION OF DYSTROPHIC MUSCLE” (FULCRUM THERAPEUTICS, INC., priority 2022, published 2025):
Where two headings read alike, the source gives them in different places.

Experiments:
[1] = biological target: T1, NOX4 (Homo sapiens, UniProt Q9NPH5); conditions: cited from earlier work
T1 sequence (Q9NPH5 1-578): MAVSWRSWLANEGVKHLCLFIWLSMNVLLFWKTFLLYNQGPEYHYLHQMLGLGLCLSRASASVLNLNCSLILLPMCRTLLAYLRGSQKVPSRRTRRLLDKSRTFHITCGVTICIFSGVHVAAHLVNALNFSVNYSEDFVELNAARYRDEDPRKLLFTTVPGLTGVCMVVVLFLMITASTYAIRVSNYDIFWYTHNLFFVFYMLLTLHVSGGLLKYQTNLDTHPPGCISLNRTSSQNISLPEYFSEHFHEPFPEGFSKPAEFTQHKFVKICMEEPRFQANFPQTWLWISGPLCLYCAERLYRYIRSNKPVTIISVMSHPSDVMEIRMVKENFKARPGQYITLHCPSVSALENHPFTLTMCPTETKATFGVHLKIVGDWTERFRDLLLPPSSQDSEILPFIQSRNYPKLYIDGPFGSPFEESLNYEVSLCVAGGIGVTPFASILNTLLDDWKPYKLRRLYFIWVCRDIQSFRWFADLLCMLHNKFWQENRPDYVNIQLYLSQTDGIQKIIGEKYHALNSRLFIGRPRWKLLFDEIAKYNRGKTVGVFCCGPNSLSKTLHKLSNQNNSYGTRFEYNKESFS
T1 sequence (P13498 1-195 partner): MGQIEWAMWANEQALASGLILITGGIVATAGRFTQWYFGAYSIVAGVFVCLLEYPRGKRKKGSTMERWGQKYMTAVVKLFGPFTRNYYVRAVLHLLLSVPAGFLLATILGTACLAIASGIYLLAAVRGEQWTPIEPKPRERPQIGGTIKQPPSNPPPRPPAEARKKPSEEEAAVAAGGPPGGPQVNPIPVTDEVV

[2] = test system: mesenchymal stem cells; experiment: Phalloidin (F-actin) / alpha-SMA staining of treated mesenchymal stem cells; type: cell-based, human; conditions: for phalloidin (F-actin) staining / α-SMA immunofluorescence and phalloidin (F-actin) staining: 1 μM; for α-SMA immunofluorescence and phalloidin (F-actin) staining: FIG. 15
Description: (§1) Bone Marrow Derived Mesenchymal Stem Cells, human (BM-MSC, ATCC PCS-500-012) were cultured in medium composed of Mesenchymal Stem Cell Basal Medium foe Adipose, Umbilcal and Bone Marrow-derived MSCs (ATCC PCS-400030 and Mesenchymal Stem Cell Growth for Bone Marrow-derived MSCs (ATCC PCS-500-041). Cells were seeded at a density of 15,000 cells/well in a 96-well format.
(§2) To induce fibrogenic differentiation BM-MSCs were cultured in a medium composed by Dulbecco's Modified Eagle Medium, 2% horse serum (HS) (Sigma H1270) and 5-10 ng/ml TGF-beta-1 (PreproTech 100-21). Cells were cultured in basal media for 2 days before being switched to fibrogenic differentiation media for 5 days, after which they were taken down for downstream assays. Compound treatment was added when media was switched to fibrogenic differentiation media, cells were treated with 0.1% DMSO if not receiving compound.
(§3) Cells were fixed in 4% PFA for 10 min at RT. Fixed cells were washed three times in 1×PBS and incubated in permeabilization solution (0.5% Triton X-100 in 1×PBS) for 10 min. Unspecific binding were saturated by incubating samples in blocking solution (5% donkey serum in 1×PBS) for 1 h. The cells were incubated at RT for 1 hour with gentle shaking in the presence of primary antibody against, alpha-smooth muscle actin (1:1000, Sigma™ A5228). The cells were washed three times with 0.05% Tween-20 in 1×PBS and incubated, for 1 hour at RT, with host-specific secondary antibodies in addition to counterstaining for Alexa Fluor Plus 750 Phalloidin (1:2000, Invitrogen™, A30105) and DAPI (1:2000). Primary and secondary antibodies were diluted according to the manufacturer's recommendations in blocking solution+0.1% Triton X-100. Finally, the cells were washed three times with 0.05% Tween-20 in 1×PBS, washed twice with 1×PBS and stored at 4° C. Images were acquired on a Thermo Scientific™ CellInsight™ CX7LED high content analysis (HCA) imaging instrument using a 10× objective. Nine fields per well were captured for quantification.

[3] = test system: Bone Marrow Derived Mesenchymal Stem Cells, human (BM-MSC); myofibroblast content; experiment: Myofibroblast reduction phenotype in TGF-beta-1 fibrogenic differentiation culture (high-content imaging); type: cell-based
Description: as §1, §2, §3
Columbus™ software (version 2.9.1, Perkin Elmer®) was used for analysis of acquired images. A custom analysis pipeline was constructed to quantify the percentage of myofibroblasts within the well. First, nuclei were segmented using “Method B” and intensity and morphology properties were calculated using standard settings. Second, viable nuclei were identified by gating on nuclei intensity, area, and roundness of the segmented objects. Next, a region of interest was then defined around the selected viable nuclei by expanding the outer boarder by […]. STAR morphology and SER texture properties were calculated within the region of interest for the alpha-smooth muscle actin and phalloidin channels using the following parameters: profile width=4 px, scale=1 px, Kernel normalization. The calculated morphology and texture properties were used to train a linear classifier consisting of two classes, myofibroblasts and mesenchymal stem cells, by selecting >100 objects in each negative control (DMSO) and positive control (fibrogenic differentiation media) conditions. The linear classifier was then applied to the untrained test wells using a batch analysis to calculate the percentage of myofibroblasts within each image using a formula output (myofibroblasts:number of objects/viable nuclei:number of objects)*100. Results were averaged across the nine fields imaged per well.
The initial six NOX4 inhibitors were assessed in replicate experiments for both potency of myofibroblast reducing activity and an associated IC50 for the myofibroblast reduction phenotype was determined (Table 1).

[4] = as described; cited from earlier work
[5] = test system: myoblast-FAP co-cultures; conditions: 0.1 uM, 3 days of differentiation, vs DMSO
Description: The impact of NOX4 inhibition on myogenic differentiation in myoblast-FAP co-cultures was investigated using primary myoblasts isolated from wild-type, uninjured mouse muscles and FAPs isolated from cardiotoxin-injured muscles of ROSA26-tdTomato mice (such mice contain cells that constitutively express the tdTomato fluorescent marker). […] Following 3 days of differentiation, cells were fixed in 4% paraformaldehyde (PFA) and stained for myosin heavy chain (MHC; marker of myogenic differentiation).

[6] = test system: cells; conditions: as described in the art; cited from earlier work
[7] = reported value, read-out: Reported Potency, IC50
[8] = Homo sapiens, BMMSC, first experiment, read-out: IC50 Phenotype (myofibroblast reduction)
[9] = Homo sapiens, BMMSC, replicate experiment, read-out: IC50 Phenotype Replicate

Compound	α-SMA immunofluorescence and phalloidin (F-actin) staining [2]	IC50 [3, 8] [nM]	IC50 [3, 9] [nM]	oral bioavailability [4]	other results
COc1cc(NC(=O)c2ccc3cc(Cl)ccc3c2)c(C(=O)O)cc1C#N [FTX7995]	exhibited both α-SMA immunofluorescence and phalloidin (F-actin) staining	8.8	10.9	–	IC50 [1, 7]: 2 nM; phalloidin staining ([2]; 10 nM): exhibited phalloidin staining; phalloidin staining ([2]; 100 nM and 1 μM): enhanced phalloidin staining; phalloidin (F-actin) staining [2]: significant phalloidin staining
CC(CNS(=O)(=O)c1ccc(C(F)(F)F)cc1)N1CCc2ccccc21 (stereo not drawn) [FTX7974]	exhibited both α-SMA immunofluorescence and phalloidin (F-actin) staining	357	333	–	IC50 [1, 7]: 2000 nM; phalloidin (F-actin) staining [2]: significant phalloidin staining
Cc1ccccc1CCNS(=O)(=O)c1c(Cl)cc(Br)cc1Cl [FTX7981]	exhibited both α-SMA immunofluorescence and phalloidin (F-actin) staining	253	342	–	IC50 ([1]; reported, read-out: IC50 NOX4): 300 nM
O=c1c2c3n(c(=O)cc2[nH]n1-c1ccccc1Cl)CCCN(Cc1ccccc1)C3 [FTX7990]	–	158	149	orally bioavailable	Ki ([1]; reported value, read-out: Reported Potency, Ki): 70 nM; reduction of myofibroblast content (concentration-response) ([3]; treated cells in culture): dose-dependent reduction of myofibroblast content
CCCc1c(-c2ccccc2)nn(-c2ccccn2)c1O [FTX7973]	–	–	–	–	IC50 ([3]; first experiment, unit nm [sic], read-out: IC50 Phenotype (myofibroblast reduction)): 638 nM; IC50 ([3]; replicate experiment, unit nm [sic], read-out: IC50 Phenotype Replicate): 781 nM
c1ccc2c(c1)[I+]c1ccccc1-2 [DPI, diphenyleneiodonium chloride]	–	–	–	–	MHC-positive myocytes (number of cells per mm^2) [5]: statistically significant increase; myogenic differentiation of myoblasts (MHC staining) [5]: significantly increased
Cc1c2c(=O)n(-c3ccccc3Cl)[nH]c2cc(=O)n1Cc1ccccn1 [FTX8018]	–	149	–	orally bioavailable	–
Cc1ccc(N2CCN(Cc3nc(N)nc(Nc4ccc(C)c(C)c4)n3)CC2)cc1 [FTX7983]	exhibited both α-SMA immunofluorescence and phalloidin (F-actin) staining	–	–	–	IC50 ([3]; Homo sapiens, BMMSC, first experiment, unit nm [sic], read-out: IC50 Phenotype (myofibroblast reduction)): 331 nM; IC50 ([3]; Homo sapiens, BMMSC, replicate experiment, unit nm [sic], read-out: IC50 Phenotype Replicate): 401 nM
c1ccc(Cn2nnc3c(Sc4nc5ccccc5o4)ncnc32)cc1 [FTX7972]	–	889	898	–	–
CCOC(=O)c1c(NC(=O)CN2CCN(C(=O)c3ccco3)CC2)sc2c1CCC2 [FTX7971]	–	4030	5210	orally bioavailable	concentration of described activity in cells [6]: about 5 μM
